Source: patent US12540120B2, “Herbicidal compounds” (SYNGENTA CROP PROTECTION AG, priority 2019, dated 2026)

Tests used:
Format in all cases: in vivo
[1] = system: Amaranthus retoflexus (AMARE); test: B2 Post-Emergence Efficacy—Test 2; details: post-emergence application, 250 g/ha, evaluated after 13 days (Test 2)
How it was run: (§1)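 Pot-grown plants sprayed post-emergence 8 days after sowing at 250 g/ha (acetone/water 50:50, 0.5% Tween 20), glasshouse 24/16 °C, 14 h light, 65% humidity. Percentage damage scored after 13 days on a five-point scale (5=80-100% to 1=0-19%).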

[2] = system: Echinochloa crus-galli (ECHCG); test: B2 Post-Emergence Efficacy—Test 2; details: post-emergence application, 250 g/ha, evaluated after 13 days (Test 2)
How it was run: as §1

[3] = system: Ipomoea hederacea (IPOHE); test: B2 Post-Emergence Efficacy—Test 2; details: post-emergence application, 250 g/ha, evaluated after 13 days (Test 2)
How it was run: as §1

Lolium perenne (LOLPE) [4] = test: B2 Post-Emergence Efficacy—Test 2; details: post-emergence application, 250 g/ha, evaluated after 13 days (Test 2)
How it was run: as §1

Setaria faberi (SETFA) [5] = test: B2 Post-Emergence Efficacy—Test 2; details: post-emergence application, 250 g/ha, evaluated after 13 days (Test 2)
How it was run: as §1

Solanum nigrum (SOLNI) [6] = test: B2 Post-Emergence Efficacy—Test 2; details: post-emergence application, 250 g/ha, evaluated after 13 days (Test 2)
How it was run: as §1

[7] = system: Amaranthus retoflexus (AMARE); test: B5 Pre-Emergence Efficacy—Test 2; details: 250 g/ha, evaluated after 13 days
How it was run: (§2)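 Pre-emergence spray, 250 g/ha, acetone/water 50:50 + 0.5% Tween 20, applied 1 day post-sowing. Glasshouse 24/16 °C, 14 h light, 65% RH. Damage read at 13 d; 5-point scale (5=80-100%, 1=0-19%).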

Solanum nigrum (SOLNI) [8] = test: B5 Pre-Emergence Efficacy—Test 2; details: 250 g/ha, evaluated after 13 days
How it was run: as §2

[9] = system: Echinochloa crus-galli (ECHCG); test: B5 Pre-Emergence Efficacy—Test 2; parameters: key: 5-point scale: 5=80-100%, 4=60-79%, 3=40-59%, 2=20-39%, 1=0-19% damage; details: 250 g/ha, evaluated after 13 days
How it was run: as §2

[10] = system: Ipomoea hederacea (IPOHE); test: B5 Pre-Emergence Efficacy—Test 2; parameters: key: 5-point scale: 5=80-100%, 4=60-79%, 3=40-59%, 2=20-39%, 1=0-19% damage; details: 250 g/ha, evaluated after 13 days
How it was run: as §2

Lolium perenne (LOLPE) [11] = test: B5 Pre-Emergence Efficacy—Test 2; parameters: key: 5-point scale: 5=80-100%, 4=60-79%, 3=40-59%, 2=20-39%, 1=0-19% damage; details: 250 g/ha, evaluated after 13 days
How it was run: as §2

Setaria faberi (SETFA) [12] = test: B5 Pre-Emergence Efficacy—Test 2; parameters: key: 5-point scale: 5=80-100%, 4=60-79%, 3=40-59%, 2=20-39%, 1=0-19% damage; details: 250 g/ha, evaluated after 13 days
How it was run: as §2

Compound	percentage damage caused to the plant, five point scale, AMARE [1]	percentage damage caused to the plant, five point scale, ECHCG [2]	percentage damage caused to the plant, five point scale, IPOHE [3]	percentage damage caused to the plant, five point scale, LOLPE (Lolium perenne (LOLPE) [4])	percentage damage caused to the plant, five point scale, SETFA (Setaria faberi (SETFA) [5])	percentage damage caused to the plant, five point scale, SOLNI (Solanum nigrum (SOLNI) [6])	Control of weed species after pre-emergence application, AMARE (percentage damage, five point scale) [7]	Control of weed species after pre-emergence application, SOLNI (percentage damage, five point scale) (Solanum nigrum (SOLNI) [8])	Control of weed species after pre-emergence application, ECHCG (percentage damage, five point scale) [9]	Control of weed species after pre-emergence application, IPOHE (percentage damage, five point scale) [10]	Control of weed species after pre-emergence application, LOLPE (percentage damage, five point scale) (Lolium perenne (LOLPE) [11])	Control of weed species after pre-emergence application, SETFA (percentage damage, five point scale) (Setaria faberi (SETFA) [12])
COC(=O)c1ccc(CCc2c(Cl)ccc(F)c2-c2c(O)c(C)nn(C)c2=O)cc1 [Compound A-1.041]	5 (5=80-100%)	1 (1=0-19%)	2 (2=20-39%)	1 (1=0-19%)	4 (4=60-79%)	5 (5=80-100%)	4 (4=60-79%)	0	0	0	0	0
Cc1nc(-c2ccc(CCc3c(Cl)ccc(F)c3-c3c(O)c(C)nn(C)c3=O)cc2)cs1 [Compound A-1.383]	5 (5=80-100%)	5 (5=80-100%)	5 (5=80-100%)	5 (5=80-100%)	5 (5=80-100%)	5 (5=80-100%)	5 (5=80-100%)	5 (5=80-100%)	4 (4=60-79%)	5 (5=80-100%)	3 (3=40-59%)	4 (4=60-79%)
Cc1cc(CCc2c(Cl)ccc(F)c2-c2c(O)c(C)nn(C)c2=O)ccc1N [Compound A-1.031]	5 (5=80-100%)	4 (4=60-79%)	4 (4=60-79%)	4 (4=60-79%)	4 (4=60-79%)	5 (5=80-100%)	3 (3=40-59%)	2 (2=20-39%)	2 (2=20-39%)	1 (1=0-19%)	1 (1=0-19%)	1 (1=0-19%)
Cc1nn(C)c(=O)c(-c2c(F)ccc(Cl)c2CCc2ccc(N(C)C)cc2)c1O [Compound A-1.033]	5 (5=80-100%)	4 (4=60-79%)	5 (5=80-100%)	5 (5=80-100%)	5 (5=80-100%)	5 (5=80-100%)	1 (1=0-19%)	1 (1=0-19%)	0	1 (1=0-19%)	1 (1=0-19%)	2 (2=20-39%)
Cc1nn(C)c(=O)c(-c2c(F)ccc(Cl)c2CCc2ccc(C3CC3)cc2)c1OC(=O)C(C)C [Compound A-3.038]	5 (5=80-100%)	2 (2=20-39%)	5 (5=80-100%)	5 (5=80-100%)	5 (5=80-100%)	5 (5=80-100%)	5 (5=80-100%)	5 (5=80-100%)	2 (2=20-39%)	5 (5=80-100%)	5 (5=80-100%)	1 (1=0-19%)
Cc1nn(C)c(=O)c(-c2c(F)ccc(Cl)c2/C=C/c2cccc(C#N)c2)c1OC(=O)C(C)C [Compound A-4.030]	2 (2=20-39%)	1 (1=0-19%)	3 (3=40-59%)	1 (1=0-19%)	0	3 (3=40-59%)	3 (3=40-59%)	4 (4=60-79%)	1 (1=0-19%)	1 (1=0-19%)	2 (2=20-39%)	1 (1=0-19%)
Cc1nn(C)c(=O)c(-c2c(F)ccc(Cl)c2CCc2ccc(-c3ccccc3)cc2)c1O [Compound A-1.027, 4-[3-chloro-6-fluoro-2-[2-(4-phenylphenyl)ethyl]phenyl]-5-hydroxy-2,6-dimethyl-pyridazin-3-one]	5 (5=80-100%)	5 (5=80-100%)	4 (4=60-79%)	5 (5=80-100%)	5 (5=80-100%)	4 (4=60-79%)	5 (5=80-100%)	4 (4=60-79%)	1 (1=0-19%)	4 (4=60-79%)	2 (2=20-39%)	3 (3=40-59%)
CNc1ccc(CCc2c(Cl)ccc(F)c2-c2c(O)c(C)nn(C)c2=O)cc1 [Compound A-1.034]	5 (5=80-100%)	1 (1=0-19%)	5 (5=80-100%)	5 (5=80-100%)	5 (5=80-100%)	5 (5=80-100%)	0	2 (2=20-39%)	0	0	0	0
